Assay results reported in patent publication US20070218460A1, “Method of Estimating Toxicity of Drug” (TAKEDA PHARMACEUTICAL COMPANY LIMITED, priority 2003, published 2007).
Like-named read-outs stand apart in the source and are kept apart here.

Legend:
HepG2 cells [1] = assay: Highest concentration at which cells were viable after 72 hr exposure; type: cell-based, human
depp = assay: Real-time quantitative PCR of PLsis marker gene expression; type: cell-based, human; settings: HepG2 cells, 24 hr exposure, relative value, control group = 1.0, GAPDH internal standard, n=3
Method: (§1) Using RNeasy Mini Kit (QIAGEN), total RNA was purified from the cells, and cDNA was synthesized in a 100 μL system using TaqMan Reverse Transcription Reagents (PE Applied Biosystems).
(§2) As the primer for glyceraldehyde-3-phosphoric acid dehydrogenase (GAPDH) and VIC labeled probe, those attached to TaqMan GAPDH Control Reagents (PE Applied Biosystems) were used.
(§3) Using 100 μL of the reaction mixture containing 5 μL of cDNA (1×TaqMan Universal PCR Master Mix (PE Applied Biosystems), 200 nM forward primer, 200 nM reverse primer and 200 nM TaqMan probe), 40 cycles of (1 cycle=95° C., 15 sec; 60° C., 1 min) PCR were performed. PCR and fluorescence detection were performed using ABI PRISM Sequence Detector 7000 (PE Applied Biosystems). As the internal standard, GAPDH was used to amend the measurement values. For the determination of significant difference, t-test was used (n=3).
(§4) For each test compound, the expression variation rate of 12 genes each relative to the control group was determined.

nr0b2 = assay: as above; type: cell-based, human; settings: HepG2 cells, 24 hr exposure, relative value, control group = 1.0, GAPDH internal standard, n=3
Method: as §1, §2, §3, §4

tagln = assay: as above; type: cell-based, human; settings: HepG2 cells, 24 hr exposure, relative value, control group = 1.0, GAPDH internal standard, n=3
Method: as §1, §2, §3, §4

asah1 = assay: as above; type: cell-based, human; settings: HepG2 cells, 24 hr exposure, relative value, control group = 1.0, GAPDH internal standard, n=3
Method: as §1, §2, §3, §4

flj22362 = assay: as above; type: cell-based, human; settings: HepG2 cells, 24 hr exposure, relative value, control group = 1.0, GAPDH internal standard, n=3
Method: as §1, §2, §3, §4

hpn = assay: as above; type: cell-based, human; settings: HepG2 cells, 24 hr exposure, relative value, control group = 1.0, GAPDH internal standard, n=3
Method: as §1, §2, §3, §4

lss = assay: as above; type: cell-based, human; settings: HepG2 cells, 24 hr exposure, relative value, control group = 1.0, GAPDH internal standard, n=3
Method: as §1, §2, §3, §4

fabp1 = assay: as above; type: cell-based, human; settings: HepG2 cells, 24 hr exposure, relative value, control group = 1.0, GAPDH internal standard, n=3
Method: as §1, §2, §3, §4

kiaa1001 = assay: as above; type: cell-based, human; settings: HepG2 cells, 24 hr exposure, relative value, control group = 1.0, GAPDH internal standard, n=3
Method: as §1, §2, §3, §4

slc2a3 = assay: as above; type: cell-based, human; settings: HepG2 cells, 24 hr exposure, relative value, control group = 1.0, GAPDH internal standard, n=3
Method: as §1, §2, §3, §4

mgc4171 = assay: as above; type: cell-based, human; settings: HepG2 cells, 24 hr exposure, relative value, control group = 1.0, GAPDH internal standard, n=3
Method: as §1, §2, §3, §4

serpina3 = assay: as above; type: cell-based, human; settings: HepG2 cells, 24 hr exposure, relative value, control group = 1.0, GAPDH internal standard, n=3
Method: as §1, §2, §3, §4

HepG2 cells [2] = assay: Electron-microscopic examination of PLsis induction potential (myelin-like structure)
Source text: Using 30 kinds of the following commercially available drugs as test compounds, the level of PLsis induction potential was examined with the emergence of an intracellular myelin-like structure or a structure having a high electron density, which is an early image thereof, as an index by electronmicroscopic observation.
HepG2 cells (purchased from ATCC) were exposed to the test compound by a conventional method. HepG2 cells used were of the cell growth phase. The attached HepG2 cells were washed twice with. Dulbecco's phosphate buffered saline (calcium and magnesium salt free; PBS(−))(Dainippon Pharmaceutical Co., Ltd.) containing 0.05 w/v % EDTA, detached with a cell dissociation solution of 0.25 vol % trypsin-1 mmol/L EDTA (Gibco BRL) diluted 2-fold with PBS(−), centrifuged to remove the supernatant, and adjusted to a concentration of 2×10^5 cells/250 μL with a culture medium [Dulbecco's modified Eagle medium (DMEM)(Gibco BRL) supplemented with 50 U/mL penicillin (Gibco BRL)-[…] streptomycin (Gibco BRL) and 5 vol % FBS (Bio whittaker)]. DMSO alone or a culture medium containing the above-mentioned test compound in DMSO solution was dispensed to a well by 250 μL, the above-mentioned cell suspension (250 μL) was added, and cultured in a CO2 incubator (7100; Napco) under an atmosphere of 5% CO2—95% air at 37° C.
After culture for 72 hr, the culture medium was removed, and the cells were fixed with 1 w/v % glutaraldehyde solution. After fixing with 2 w/v % osmic acid for 2 hr by a conventional method and dehydrating with an alcohol series, the cells were embedded in a resin (Quetol 812). Ultrathin slices were prepared and, after electron staining, observed with an electron microscope (H-300; Hitachi) and photographed in 3 or more pictures per each sample (magnification ×5000). The processing after post-fixation was performed by Applied Medical Research.

SMILES | addition concentration (highest concentration at which cells survived after 72 hr of culture) (HepG2 cells [1]) | expression variation rate depp (depp) | expression variation rate nr0b2 (nr0b2) | expression variation rate tagln (tagln) | expression variation rate asah1 (asah1) | expression variation rate flj22362 (flj22362) | expression variation rate hpn (hpn) | expression variation rate lss (lss) | expression variation rate fabp1 (fabp1) | expression variation rate kiaa1001 (kiaa1001) | expression variation rate slc2a3 (slc2a3) | expression variation rate mgc4171 (mgc4171) | expression variation rate serpina3 (serpina3) | frequency of appearance of myelin-like structure (HepG2 cells [2]) | frequency of appearance of myelin-like structure (HepG2 cells [2]; HepG2 cells, 72 hr culture, electron microscopy, blind test n=4, addition concentration 8.3 or 25 μmol/L) | frequency of appearance of myelin-like structure (HepG2 cells [2]; HepG2 cells, 72 hr, electromicroscopic test, class symbols in head of Table 2)
CN(C)C/C=C(/c1ccc(Br)cc1)c1cccnc1 [zimelidine] | 25 µmol/L | 2.67 | 1.33 | 0.59 | 2.91 | 1.71 | 1.74 | 1.05 | 1.42 | 2.24 | 0.70 | 1.12 | 1.95 | + |  | 
CN(C)CCCN1c2ccccc2Sc2ccc(Cl)cc21 [chlorpromazine] | 8.3 µmol/L | 2.95 | 1.20 | 0.65 | 1.29 | 1.70 | 1.70 | 1.99 | 2.56 | 1.90 | 0.43 | 1.74 | 1.94 | ++ |  | 
CN1CCN(C(c2ccccc2)c2ccc(Cl)cc2)CC1 (centres unmarked) [chlorcyclizine] | 25 µmol/L | 3.24 | 2.46 | 0.30 | 3.23 | 2.96 | 2.97 | 2.98 | 2.62 | 2.47 | 0.20 | 2.43 | 2.23 | +++ |  | 
CN[C@H]1CC[C@@H](c2ccc(Cl)c(Cl)c2)c2ccccc21 [sertraline] | 8.3 µmol/L | 4.44 | 1.79 | 0.37 | 3.08 | 3.49 | 3.07 | 3.91 | 4.14 | 2.38 | 0.14 | 1.94 | 2.69 | ++ |  | 
CCOC(=O)N1CCC(=C2c3ccc(Cl)cc3CCc3cccnc32)CC1 [loratadine] | 8.3 µmol/L |  |  |  |  |  |  |  |  |  |  |  |  |  | mild | +
CC(=O)Nc1ccc(O)cc1 [acetaminophen] | 25 µmol/L | 0.94 | 0.69 | 0.93 | 1.18 | 1.02 | 1.10 | 0.91 | 1.11 | 1.13 | 1.50 | 0.75 | 0.99 |  |  | 
CN(C)CCCN1c2ccccc2CCc2ccccc21 [imipramine] | 25 µmol/L | 3.36 | 3.41 | 0.15 | 4.52 | 1.80 | 2.32 | 2.69 | 2.45 | 2.11 | 0.15 | 1.81 | 2.12 |  |  | 
CN1CCN(C2=Nc3cc(Cl)ccc3Nc3ccccc32)CC1 [clozapine] | 25 µmol/L | 5.15 | 1.97 | 0.24 |  | 1.92 | 2.35 |  | 3.89 | 3.34 | 0.24 | 1.88 | 1.96 | ++ |  | 
C=C[C@H]1C[N@@]2CC[C@H]1C[C@@H]2[C@@H](O)c1ccnc2ccc(OC)cc12 [quinidine] | 25 µmol/L |  |  | 0.63 | 1.43 |  |  |  | 1.38 |  | 0.37 |  |  | − |  | 
N=C(N)c1ccc(OCCCCCOc2ccc(C(=N)N)cc2)cc1 [pentamidine] | 8.3 µmol/L | 2.88 | 1.83 | 0.68 | 0.93 | 2.49 | 2.50 | 0.52 | 0.15 | 1.82 | 0.50 | 0.73 | 2.12 |  |  | 
